Laboratory results as given in ChEMBL document CHEMBL5034037, “Synthesis, Characterization, and Preclinical Evaluation of a Small-Molecule Prostate-Specific Membrane Antigen-Targeted Monomethyl Auristatin E Conjugate” (J Med Chem, 2021).
*1 amine or outer side, *2 acyl side, *3 side chain or, on linkers, in order; H or OH if unused. Where a SMILES comes first, the peptide text is derived from it. [ ]: non-standard residue; d: D form. The star is where a group is joined. GluureaLys(ε-3-ClBenzyl) = O=C(O)CC[C@H](NC(=O)N[C@@H](CCCCN(Cc1cccc(Cl)c1)*)C(=O)O)C(=O)O; Dolaproine = CO[C@@H]([C@@H]1CCCN1)[C@@H](C)C(=O)O; Dil = CC[C@H](C)[C@H](NC)[C@@H](CC(=O)O)OC; X1 = O=C(CCCc1cn(CCCN[*:1])nn1)[*:2]; PABC = O=C(OCc1ccc(N[*:1])cc1)[*:2]; X2 = C[C@@H](N*)[C@@H](O)c1ccccc1; Cit = NC(=O)NCCC[C@H](N)C(=O)O; Suc = O=C(CCC(=O)[*:2])[*:1]; NMeV = CN[C@H](C(=O)O)C(C)C; Ahx = NCCCCCC(=O)O

How the values were obtained:
[1] = Chronic toxicity in rat assessed as diarrhea at 10 microg/kg, iv; conditions: in vivo, 0.01 mg/kg, dose 10 µg/kg
Cytochrome P450 2C8 = biological target: T1, Cytochrome P450 2C8 (Homo sapiens, UniProt P10632); experiment: Drug metabolism assessed as human liver microsome CYP2C8-mediatd metabolism; format: ADME; conditions: microsomes
T1 sequence (P10632 whole entry): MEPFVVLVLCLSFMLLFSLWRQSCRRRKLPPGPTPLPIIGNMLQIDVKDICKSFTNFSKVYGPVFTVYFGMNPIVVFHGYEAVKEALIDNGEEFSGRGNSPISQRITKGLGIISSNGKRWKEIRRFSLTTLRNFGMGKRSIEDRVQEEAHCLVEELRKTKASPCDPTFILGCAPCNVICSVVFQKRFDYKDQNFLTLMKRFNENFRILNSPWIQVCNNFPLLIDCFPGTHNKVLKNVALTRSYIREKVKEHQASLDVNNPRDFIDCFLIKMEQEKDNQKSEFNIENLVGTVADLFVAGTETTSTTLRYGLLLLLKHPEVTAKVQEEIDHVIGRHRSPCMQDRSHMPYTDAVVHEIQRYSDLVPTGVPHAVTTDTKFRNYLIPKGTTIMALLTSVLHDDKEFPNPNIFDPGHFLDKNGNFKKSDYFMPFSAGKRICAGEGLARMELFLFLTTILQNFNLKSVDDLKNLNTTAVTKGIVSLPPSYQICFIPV

[2] = Toxicity in rabbit morphological change in tongue at 81 to 122 microg/kg, iv; format: tissue-based, Oryctolagus cuniculus; conditions: in vivo, dose 81-122 µg/kg
[3] = Toxicity in rabbit assessed as morphological changes in heart muscle at 81 to 122 microg/kg, iv; format: tissue-based, Oryctolagus cuniculus; conditions: in vivo, dose 81-122 µg/kg
[4] = Toxicity in rabbit assessed as morphological changes in thymus at 81 to 122 microg/kg, iv; format: tissue-based, Oryctolagus cuniculus; conditions: in vivo, dose 81-122 µg/kg
[5] = Toxicity in rat assessed as morphological changes in abdominal cavity at 150 to 225 microg/kg, iv; conditions: in vivo, dose 150-225 µg/kg
[6] = Chronic toxicity in rabbit assessed as mortality rate at 5.4 microg/kg, iv dosed measured at day 4; format: organism-based, Oryctolagus cuniculus; conditions: in vivo, 0.0054 mg/kg, dose 5.4 µg/kg, read-out: Activity
[7] = Toxicity in rabbit assessed as morphological changes in adrenal medulla at 81 to 122 microg/kg, iv; parameters: species or system Oryctolagus cuniculus; conditions: in vivo, dose 81-122 µg/kg
[8] = Stability of compound at pH 5.6 assessed as recombinant cathepsin B mediated hydrolysis by measuring MMAE release by HPLC-MS analysis; format: physicochemical; conditions: buffer
Salmonella typhimurium = experiment: Mutagenecity in Salmonella typhimurium TA100 without metabolic activation system at 1 ug/ml by Ames test; format: toxicity, organism-based; conditions: salmonella enterica subsp. enterica serovar typhimurium; dose 1 µg/ml

SMILES: CC[C@H](C)[C@@H]([C@@H](CC(=O)N1CCC[C@H]1[C@H](OC)[C@@H](C)C(=O)N[C@H](C)[C@@H](O)c1ccccc1)OC)N(C)C(=O)[C@@H](NC(=O)[C@H](C(C)C)N(C)C(=O)OCc1ccc(NC(=O)[C@H](CCCNC(N)=O)NC(=O)[C@@H](NC(=O)CCCc2cn(CCCNC(=O)[C@H](Cc3ccc(O)cc3)NC(=O)[C@H](Cc3ccccc3)NC(=O)CCC(=O)NCCCCCC(=O)N(CCCC[C@H](NC(=O)N[C@@H](CCC(=O)O)C(=O)O)C(=O)O)Cc3cccc(Cl)c3)nn2)C(C)C)cc1)C(C)C ({GluureaLys(ε-3-ClBenzyl)-Ahx-Suc}-FY[X1]V[Cit][PABC][NMeV]V[Dil][Dolaproine]-X2)
- Activity [1]: Toxic
- Drug metabolism (Cytochrome P450 2C8): Metabolite_Notdetected
- Activity [2]: Non-Toxic
- Activity [3]: Non-Toxic
- Activity [4]: Non-Toxic
- Activity [5]: Non-Toxic
- mortality at 4 day [6]: 100%
- Activity [7]: Non-Toxic
- Stability [8]: Unstable
- Activity (Salmonella typhimurium): Non-Toxic
